Consider 18 compounds from patent US20240294551A1 (AMGEN INC., priority 2022, published 2024).

Assay [1] deals with His-tagged KRAS G12D protein (Homo sapiens (Human), UniProt P01116, G12D). The experiment in a line: KRAS G12D TR-FRET Assay. The assay is classed as binding. As to conditions: read-out: KRAS G12D Binding IC50. As for the experimental part: Compounds of interest were prepared in a dose-response titration in DMSO, and 80 nL were added via Labcyte Echo to each well of a 384-well plate (Perkin Elmer 6008280). The His-tagged KRAS G12D protein (Amgen) was diluted to 20 nM in Assay Buffer (20 mM HEPES, pH 7.4, 10 mM MgCl2, 50 mM NaCl, 0.1% BSA, 0.01% Tween-20, 10 μM GDP) and 2 μL was added to the appropriate wells of the 384-well plate. The plate was incubated for 30 minutes at room temperature. Biotinylated KRPep-2d substrate (Amgen) was diluted to 20 nM in Assay Buffer and 2 μL was added to all wells and incubated for 1 hour at room temperature. Detection Reagent (0.4 nM LANCE Eu-W1024 Anti-6×His (Perkin Elmer AD0401), 5 nM streptavidin-d2 (Cisbio 610SADLA)) was prepared in Assay Buffer, then 4 μL was added to the plate and incubated for 1 hour at room temperature. Plates were read using PerkinElmer EnVision (ex: 320 nm, em1: 665 nm, em2: 615 nm) and em1/em2 data was used to generate curve fits using a 4-parameter logistic model to calculate IC50 values.
(Time-resolved FRET reads energy transfer from a long-lived donor to a nearby acceptor.)

Assay [2] deals with GDP-bound KRAS protein (aa 1-169), containing both G12D and C118A amino acid substitutions (Homo sapiens (Human), UniProt P01116, C118A/G12D). Briefly: KRAS G12D Coupled Nucleotide Exchange Assay. As to conditions: read-out: KRAS G12D Coupled Exchange IC50. The class given is biochemical. On the procedure:
KRAS G12D Coupled Nucleotide Exchange Assay
Following compound pre-incubation, purified SOS protein (aa 564-1049) and GTP (Roche 10106399001) were added to the assay wells and incubated for an additional 30 min. To determine the extent of inhibition of SOS-mediated nucleotide exchange, purified GST-tagged cRAF (aa 1-149), nickel chelate AlphaLISA acceptor beads (PerkinElmer AL108R), and AlphaScreen glutathione donor beads (PerkinElmer 6765302) were added to the assay wells and incubated for 10 minutes. The assay plates were then read on a PerkinElmer EnVision Multilabel Reader, using AlphaScreen® technology, and data were analyzed using a 4-parameter logistic model to calculate IC50 values.

Sequence of GDP-bound KRAS protein (aa 1-169), containing both G12D and C118A amino acid substitutions (P01116 other isoform, or with tags, fused parts or gaps G12D/C118A): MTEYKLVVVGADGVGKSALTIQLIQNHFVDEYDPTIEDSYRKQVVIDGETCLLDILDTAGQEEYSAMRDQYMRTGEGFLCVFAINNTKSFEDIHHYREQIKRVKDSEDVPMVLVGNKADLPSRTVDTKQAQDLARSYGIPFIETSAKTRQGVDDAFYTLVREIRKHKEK
Sequence of His-tagged KRAS G12D protein (P01116 other isoform, or with tags, fused parts or gaps G12D): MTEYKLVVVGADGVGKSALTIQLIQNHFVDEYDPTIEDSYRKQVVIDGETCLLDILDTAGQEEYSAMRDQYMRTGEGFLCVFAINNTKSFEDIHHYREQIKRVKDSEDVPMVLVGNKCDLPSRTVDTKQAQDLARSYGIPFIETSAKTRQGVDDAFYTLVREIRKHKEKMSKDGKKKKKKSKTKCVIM

Consider `O=C1CCCc2cccc3cccc(c23)-c2ncc3c(nc(OC[C@@]45CCCN4C[C@H](F)C5)nc3c2F)N2CCC[C@H](C2)O1` [Example 29, (15R)-31-Fluoro-8-(((2R,7aS)-2-fluorotetrahydro-1H-pyrrolo[1,2-a]pyrrol-7a(5H)-yl)methoxy)-16-oxa-3,7,9,11-tetraazahexacyclo[19.7.1.1˜2,6˜.1˜11,15˜.0˜5,10˜.0˜25,29˜]hentriaconta-1(28),2(31),3,5,7,9,21,23,25(29),26-decaen-17-one bis(2,2,2-trifluoroacetate)], for which the IC50 in assay [1] is 443 nM; in assay [2] it was 513 nM.

For the compound `Cc1cc2[nH]ncc2c2c1CCCCCC(=O)O[C@@H]1CCCN(C1)c1nc(OC[C@@]34CCCN3C[C@H](F)C4)nc3c(F)c-2ncc13` [Example 34, (18R)-31-fluoro-25-(((2R,7aS)-2-fluorotetrahydro-1H-pyrrolo[1,2-a]pyrrol-7a(5H)-yl)methoxy)-9-methyl-17-oxa-5,6,22,24,26,30-hexaazahexacyclo[25.3.1.1~18,22~.0~2,10~.0~3,7~.0~23,28~]dotriaconta-1(31),2,4,7,9,23,25,27,29-nonaen-16-one], the IC50 stood at 220 nM in assay [1] and 177 nM in assay [2].

With `O=C1OC[C@H]2C[C@H]2c2c(Cl)cc3[nH]ncc3c2-c2ncc3c(nc(OC[C@@]45CCCN4C[C@H](F)C5)nc3c2F)N2CCC[C@H](C2)O1` [Example 46, (11R,13S,18R)-9-chloro-31-fluoro-25-(((2R,7aS)-2-fluorotetrahydro-1H-pyrrolo[1,2-a]pyrrol-7a(5H)-yl)methoxy)-15,17-dioxa-5,6,22,24,26,30-hexaazaheptacyclo[25.3.1.1˜18,22˜.0˜2,10˜.0˜3,7˜.0˜11,13˜.0˜23,28˜]dotriaconta-1(31),2,4,7,9,23,25,27,29-nonaen-16-one bis(2,2,2-trifluoroacetate)], the IC50 in assay [1] stood at 12 nM; in assay [2], 10 nM.

Turning to `O=C1CCCCc2c(Cl)cccc2-c2ncc3c(nc(OC[C@@]45CCCN4C[C@H](F)C5)nc3c2F)N2CCC[C@H](C2)N1` [Example 59, (23R)-15-chloro-28-fluoro-4-(((2R,7aS)-2-fluorotetrahydro-1H-pyrrolo[1,2-a]pyrrol-7a(5H)-yl)methoxy)-1,3,5,9,22-pentaazapentacyclo[21.3.1.1~6,10~.0~2,7~.0~11,16~]octacosa-2,4,6,8,10(28),11,13,15-octaen-21-one], the IC50 in assay [1] came out at 651 nM; in assay [2], 481 nM.

With `O=C1CCCc2c(F)ccc3cccc(c23)-c2ncc3c(nc(OC[C@@]45CCCN4C[C@H](F)C5)nc3c2F)N2CCOC[C@H](C2)N1` [Example 70, (16S)-23,32-difluoro-8-(((2R,7aS)-2-fluorotetrahydro-1H-pyrrolo[1,2-a]pyrrol-7a(5H)-yl)methoxy)-14-oxa-3,7,9,11,17-pentaazahexacyclo[20.7.1.1~2,6~.1~11,16~.0~5,10~.0~26,30~]dotriaconta-1(29),2(32),3,5,7,9,22,24,26(30),27-decaen-18-one], the IC50 in assay [1] came to 277 nM; in assay [2], 274 nM.

With `O=C1CCCc2c(F)ccc3cccc(c23)-c2ncc3c(nc(OC[C@@]45CCCN4C[C@H](F)C5)nc3c2F)N2CC[C@@H]3CCN1[C@@H]3C2` [Example 71, (27R,31S)-18,33-Difluoro-4-(((2R,7aS)-2-fluorotetrahydro-1H-pyrrolo[1,2-a]pyrrol-7a(5H)-yl)methoxy)-1,3,5,9,24 pentaazaheptacyclo[22.5.2.1˜6,10˜.1˜11,15˜.0˜2,7˜.0˜19,32˜.0˜27,31˜]tritriaconta-2,4,6,8,10(33),11,13,15(32),16,18-decaen-23-one], the figures for the IC50 in assay [1] and in assay [2] were 306 nM and 119 nM, respectively.

Consider `C[C@]12CCCN(C1)c1nc(OC[C@@]34CCCN3C[C@H](F)C4)nc3c(F)c(ncc13)-c1cccc3ccc(F)c(c13)CCOC(=O)N2` [Example 78, (15S)-22,31-difluoro-8-(((2R,7aS)-2-fluorotetrahydro-1H-pyrrolo[1,2-a]pyrrol-7a(5H)-yl)methoxy)-15-methyl-18-oxa-3,7,9,11,16-pentaazahexacyclo[19.7.1.1~2,6~.1~11,15~.0~5,10~.0~25,29~]hentriaconta-1(29),2(31),3,5,7,9,21,23,25,27-decaen-17-one], for which the concentration for half-maximal inhibition (IC50) amounted to 3810 nM in assay [1] and 2100 nM in assay [2].

For `O=C1CCCc2c(F)ccc3cccc(c23)-c2ncc3c(nc(OC[C@@]45CCCN4C[C@H](F)C5)nc3c2F)N2CCOC[C@H](C2)O1` [Example 109], the IC50 is 180 nM in assay [1] and 196 nM in assay [2].

As for `C[C@@]12CCCN(C1)c1nc(OC[C@@]34CCCN3C[C@H](F)C4)nc3c(F)c(ncc13)-c1cccc3cccc(c13)CCCOC(=O)O2` [Example 121], the IC50 in assay [1] was found to be 508 nM; in assay [2], 422 nM.

Turning to `Cc1cc2[nH]ncc2c2c1CCCCCO[C@@H]1CCCN(C1)c1nc(OC[C@@]34CCCN3C[C@H](F)C4)nc3c(F)c-2ncc13` [Example 132], the figures for the IC50 in assay [1] and in assay [2] were 70 nM and 67 nM, respectively.

`Cc1cc2[nH]ncc2c2c1CC/C=C\CO[C@@H]1CCCN(C1)c1nc(OC[C@@]34CCCN3C[C@H](F)C4)nc3c(F)c-2ncc13` [Example 133]: the IC50 in assay [1] turned out to be 241 nM; in assay [2], 240 nM.

On to `Cc1cc2[nH]ncc2c2c1CC/C=C/CO[C@@H]1CCCN(C1)c1nc(OC[C@@]34CCCN3C[C@H](F)C4)nc3c(F)c-2ncc13` [Example 134], for which the IC50 in assay [1] amounted to 56 nM; in assay [2] it was 59 nM.

With `Fc1c2ncc3c(nc(OC[C@@]45CCCN4C[C@H](F)C5)nc13)N1CCC[C@H](C1)Cn1cc(nn1)CCc1c(Cl)cc3[nH]ncc3c1-2` [Example 146], the IC50 turned out to be 77 nM in assay [1] and 65 nM in assay [2].

For the compound `Fc1c2ncc3c(nc(OC[C@@]45CCCN4C[C@H](F)C5)nc13)N1CCO[C@@H](COCCOCc3c(Cl)cc4[nH]ncc4c3-2)C1` [Example 152, (17R)-9-chloro-30-fluoro-24-(((2R,7aS)-2-fluorotetrahydro-1H-pyrrolo[1,2-a]pyrrol-7a(5H)-yl)methoxy)-12,15,18-trioxa-5,6,21,23,25,29 hexaazahexacyclo[24.3.1.1~17,21~.0~2,10~.0~3,7~.0~22,27~]hentriaconta-1(30),2,4,7,9,22,24,26,28-nonaene], the IC50 in assay [1] is 71 nM; in assay [2], 56 nM.

With `O=C1CCCCc2c(Cl)cccc2-c2ncc3c(nc(OC[C@@]45CCCN4C[C@H](F)C5)nc3c2F)N2CC[C@@H]3CCN1[C@@H]3C2` [Example 163, (25R,29S)-15-chloro-30-fluoro-4-(((2R,7aS)-2-fluorotetrahydro-1H-pyrrolo[1,2-a]pyrrol-7a(5H)-yl)methoxy)-1,3,5,9,22-pentaazahexacyclo[20.5.2.1~6,10~.0~2,7~.0~11,16~.0~25,29~]triaconta-2,4,6,8,10(30),11,13,15-octaen-21-one], the IC50 came to 2840 nM in assay [1] and 1570 nM in assay [2].

With `C[C@]12CCCCN(C1)c1nc(OC[C@@]34CCCN3C[C@H](F)C4)nc3c(F)c(ncc13)-c1c(c(Cl)cc3[nH]ncc13)CCCCC(=O)N2` [Example 165, (26S)-18-chloro-32-fluoro-4-(((2R,7aS)-2-fluorotetrahydro-1H-pyrrolo[1,2-a]pyrrol-7a(5H)-yl)methoxy)-26-methyl-1,3,5,9,14,15,25-heptaazahexacyclo[24.4.1.1~6,10~.0~2,7~.0~11,19~.0~12,16~]dotriaconta-2,4,6,8,10(32),11,13,16,18-nonaen-24-one], the figures for the half-inhibitory concentration (IC50) in assay [1] and in assay [2] were 12700 nM and 4430 nM, respectively.

For the compound `O=C1CCCCc2c(Cl)cc3[nH]ncc3c2-c2ncc3c(nc(OC[C@@]45CCCN4C[C@H](F)C5)nc3c2F)N2C[C@H]3CN1[C@H]3C2` [Example 169, (18S,19R)-9-chloro-30-fluoro-24-(((2R,7aS)-2-fluorotetrahydro-1H-pyrrolo[1,2-a]pyrrol-7a(5H)-yl)methoxy)-5,6,16,21,23,25,29-heptaazaheptacyclo[24.3.1.1~18,21~.0~2,10~.0~3,7~.0~16,19~.0~22,27~]hentriaconta-1(30),2,4,7,9,22,24,26,28-nonaen-15-one], the IC50 in assay [1] is 616 nM; in assay [2], 339 nM.

Take `Cc1cc2[nH]ncc2c2c1CCCCC(=O)N[C@@H]1CN(C[C@@H]3C[C@@H]31)c1nc(OC[C@@]34CCCN3C[C@H](F)C4)nc3c(F)c-2ncc13` [Example 170, (26S,27S,29R)-32-fluoro-4-(((2R,7aS)-2-fluorotetrahydro-1H-pyrrolo[1,2-a]pyrrol-7a(5H)-yl)methoxy)-18-methyl-1,3,5,9,14,15,25-heptaazaheptacyclo[24.4.1.1~6,10~.0~2,7~.0~11,19~.0~12,16~.0~27,29~]dotriaconta-2,4,6,8,10(32),11,13,16,18-nonaen-24-one]: the IC50 in assay [1] came to 2490 nM; in assay [2] it was 1540 nM.

Usually IC50 stands for the point on the concentration scale where inhibition reaches its midpoint.
